Experimental data published in US10947252B2, “Inhibitors of KEAP1-Nrf2 protein-protein interaction” (Janssen Pharmaceutica NV, priority 2018, dated 2021).

How the values were obtained:
[1] = tested on: Glo-Response ARE-luc2P HEK293 cell line; experiment: ARE luciferase reporter cell-based assay; settings: Homo sapiens, HEK293, 24 h, average of results obtained;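 also: luciferase signal tracks Nrf2 activation of the ARE once compounds disrupt KEAP1-Nrf2 binding, read with One-Glo reagent, DMSO serving as low control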
[2] = target: Kelch domain of human KEAP1 (321-624 aa) (Homo sapiens (Human), UniProt Q14145); experiment: KEAP1 KELCH ThermoFluor binding assay; settings: KEAP Kelch […], 1,8-ANS, pH 7.0, average of results obtained, read-out: Tf Kd;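 also: Ligand-induced melting temperature shift of E. coli-expressed KEAP1 Kelch protein, Kd estimated from concentration-response curves of ΔTm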
Sequence of Kelch domain of human KEAP1 (321-624 aa) (Q14145 321-624): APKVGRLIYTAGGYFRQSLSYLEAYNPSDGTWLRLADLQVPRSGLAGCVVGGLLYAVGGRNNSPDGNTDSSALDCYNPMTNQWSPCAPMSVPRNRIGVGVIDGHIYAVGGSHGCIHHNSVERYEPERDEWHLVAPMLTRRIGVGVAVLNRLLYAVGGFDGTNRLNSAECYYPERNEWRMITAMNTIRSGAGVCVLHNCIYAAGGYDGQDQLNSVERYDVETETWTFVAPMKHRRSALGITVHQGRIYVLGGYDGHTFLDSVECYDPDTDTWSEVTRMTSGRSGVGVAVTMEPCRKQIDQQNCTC

SMILES	Kd [2] [nM]	EC50 [1] [nM]
Cc1ccc([C@H](CC(=O)O)c2ccc3c(nnn3CC3CC3)c2C)cc1CN1C[C@@]2(C)CCCN2c2ncccc2S1(=O)=O (single isomer, unassigned) [Example 82, (*S)-3-(1-(Cyclopropylmethyl)-4-methyl-1H-benzo[d][1,2,3]triazol-5-yl)-3-(4-methyl-3-(((*R)-7a-methyl-5,5-dioxido-7a,8,9,10-tetrahydropyrido[2,3-f]pyrrolo[2,1-d][1,2,5]thiadiazepin-6(7H)-yl)methyl)phenyl)propanoic Acid]	80	3350
Cc1cnc2c(c1)S(=O)(=O)N(Cc1cc([C@H](CC(=O)O)c3ccn4c(C(F)(F)F)nnc4c3C)ccc1Cl)CC1CCCCN21 (single isomer, unassigned) [Example 91, (*S)-3-(4-Chloro-3-(((*S)-3-methyl-5,5-dioxido-7,7a,8,9,10,11-hexahydro-6H-dipyrido[2,1-d:2′,3′-f][1,2,5]thiadiazepin-6-yl)methyl)phenyl)-3-(8-methyl-3-(trifluoromethyl)-[1,2,4]triazolo[4,3-a]pyridine-7-yl)propanoic Acid]	< 1	14.4
Cc1c([C@H](CC(=O)O)c2ccc(Cl)c(CN3CC4CCCCN4c4ncc(F)cc4S3(=O)=O)c2)ccn2c(C(F)(F)F)nnc12 (single isomer, unassigned) [Example 93, (*R)-3-(4-Chloro-3-(((*S)-3-fluoro-5,5-dioxido-7,7a,8,9,10,11-hexahydro-6H-dipyrido[2,1-d:2′,3′-f][1,2,5]thiadiazepin-6-yl)methyl)phenyl)-3-(8-methyl-3-(trifluoromethyl)-[1,2,4]triazolo[4,3-a]pyridine-7-yl)propanoic Acid]	< 1	10
Cc1c([C@@H](CC(=O)O)c2ccc(Cl)c(CN3CC4CCCCN4c4ncc(F)cc4S3(=O)=O)c2)ccn2c(C(F)(F)F)nnc12 (single isomer, unassigned) [Example 94, (*S)-3-(4-Chloro-3-(((*S)-3-fluoro-5,5-dioxido-7,7a,8,9,10,11-hexahydro-6H-dipyrido[2,1-d:2′,3′-f][1,2,5]thiadiazepin-6-yl)methyl)phenyl)-3-(8-methyl-3-(trifluoromethyl)-[1,2,4]triazolo[4,3-a]pyridine-7-yl)propanoic Acid]	< 1	54.2
Cc1ccc([C@H](CC(=O)O)c2ccn3c(C(F)(F)F)nnc3c2C)cc1CN1CC2(COC2)Oc2ccc(F)cc2S1(=O)=O (single isomer, unassigned) [Example 99, (*S)-3-(3-((8-Fluoro-1,1-dioxidospiro[benzo[b][1,4,5]oxathiazepine-4,3′-oxetan]-2(3H)-yl)methyl]-4-methylphenyl)-3-(8-methyl-3-(trifluoromethyl)-[1,2,4]triazolo[4,3-a]pyridin-7-yl)propanoic Acid]	< 1	5.8
Cc1ccc([C@H](CC(=O)O)c2ccn3c(C(F)(F)F)nnc3c2C)cc1CN1CC2(CC2)Oc2nc(NCCCO)ccc2S1(=O)=O (single isomer, unassigned) [Example 102]	< 1	696

Now from value to compound, other results behind:

Kd [2] [nM]	SMILES	EC50 [1] [nM]
< 1	Cc1c([C@@H](CC(=O)O)c2ccc(Cl)c(CN3CC4CCCCN4c4ncccc4S3(=O)=O)c2)ccn2c(C(F)(F)F)nnc12 (single isomer, unassigned) [Example 84, (*S)-3-(4-Chloro-3-(((*S)-5,5-dioxido-7,7a,8,9,10,11-hexahydro-6H-dipyrido[2,1-d:2′,3′-][1,2,5]thiadiazepin-6-yl)methyl)phenyl)-3-(8-methyl-3-(trifluoromethyl)-[1,2,4]triazolo[4,3-a]pyridine-7-yl)propanoic Acid]	80.5
2.2	Cc1c([C@H](CC(=O)O)c2ccc(Cl)c(CN3CC4CCCCN4c4ncccc4S3(=O)=O)c2)ccn2c(C(F)(F)F)nnc12 (single isomer, unassigned) [Example 85, (*R)-3-(4-Chloro-3-(((*S)-5,5-dioxido-7,7a,8,9,10,11-hexahydro-6H-dipyrido[2,1-d:2′,3′-f][1,2,5]thiadiazepin-6-yl)methyl)phenyl)-3-(8-methyl-3-(trifluoromethyl)-[1,2,4]triazolo[4,3-a]pyridine-7-yl)propanoic Acid]	1510
1.3	Cc1c([C@H](CC(=O)O)c2ccc(Cl)c(CN3CC4(COC4)Oc4ncccc4S3(=O)=O)c2)ccn2c(C(F)(F)F)nnc12 (single isomer, unassigned) [Example 87, (*R)-3-(4-Chloro-3-((1′,1′-dioxoidospiro[oxetane-3,4′-pyrido[2,3-b][1,4,5]oxathiazepin]-2′(3′H)-yl)methyl)phenyl)-3-(8-methyl-3-(trifluoromethyl)-[1,2,4]triazolo[4,3-a]pyridine-7-yl)propanoic Acid]	2530
0.01	Cc1c([C@@H](CC(=O)O)c2ccc(Cl)c(CN3CC4(COC4)Oc4ncccc4S3(=O)=O)c2)ccn2c(C(F)(F)F)nnc12 (single isomer, unassigned) [Example 88, (*S)-3-(4-Chloro-3-((1′,1′-dioxoidospiro[oxetane-3,4′-pyrido[2,3-b][1,4,5]oxathiazepin]-2′(3′H)-yl)methyl)phenyl)-3-(8-methyl-3-(trifluoromethyl)-[1,2,4]triazolo[4,3-a]pyridine-7-yl)propanoic Acid]	> 20000
< 1	Cc1ccc([C@H](CC(=O)O)c2ccn3c(C(F)(F)F)nnc3c2C)cc1CN1CC2(CC2)Oc2nc(NCCO)ccc2S1(=O)=O (single isomer, unassigned) [Example 101, (*S)-3-(3-((7′-((2-Hydroxyethyl)amino-1′,1′-dioxidospiro[cyclopropane-1.4′-pyrido[2,3-b][1,4,5]oxathiazepin]-2′(3′H)-yl)methyl)-4-methylphenyl)-3-(8-methyl-3-(trifluoromethyl)-[1,2,4]triazolo[4,3-a]pyridinn-7-yl)propanoic Acid]	577
1.6	Cc1ccc([C@H](CC(=O)O)c2ccn3c(C(F)(F)F)nnc3c2C)cc1CN1CC2(CC2)Oc2nc(O)ccc2S1(=O)=O (single isomer, unassigned) [Example 103, (*S)-3-(3-((7′-Hydroxy-1′,1′-dioxidospiro[cyclopropane-1,4′-pyrido[2,3,-b][1,4,5]oxathiazepin]-2′(3′H)-yl)methyl)-4-methylphenyl)-3-(8-methyl-3-(trifluoromethyl)-[1,2,4]triazolo[4,3-a]pyridine-7-yl)propanoic Acid]	9130
16	Cc1cnc2c(c1)S(=O)(=O)N(Cc1cc([C@H](CC(=O)O)c3ccn4c(C(F)(F)F)nnc4c3C)ccc1C#N)CC1(CC1)O2 (single isomer, unassigned) [Example 105, (*S)-3-(4-Cyano-3-((8′-methyl-1′,1′-dioxidospiro[cyclopropane-1,4′-pyrido[2,3-b][1,4,5]oxathiazepin]-2′(3′H)-yl)methyl)phenyl)-3-(8-methyl-3-(trifluoromethyl)-[1,2,4]trizolo[4,3-a]pyridine-7-yl)propanoic Acid]	14400
